Experimental data from patent publication US20160280736A1, “CYCLIC PEPTIDE COMPOUND, AND PREPARATION METHOD, PHARMACEUTICAL COMPOSITION AND USE THEREOF” (HANGZHOU GUANYU BIO-MEDICAL CO., LTD., priority 2013, published 2016).
Like-named read-outs stand apart in the source and are kept apart here.

Key:
HDAC1 = HDAC1 (Homo sapiens, UniProt Q13547); experiment: HDAC biochemical activity measurement (fluorescent substrate deacetylation); conditions: HDAC1 enzyme, 37°, 30 minutes
Procedure: (§9) Measurement principle: The chemical activity of the compound is determined according to the degree of deacetylation inhibition of the HDAC enzyme. This experiment measured the degree of deacetylation related to tumor proliferation and metastasis of HDAC1, HDAC2, HDAC3, HDAC8, HDAC11 five subtypes HDAC enzymes. After the substrate containing an acetylated lysine side chain and HDAC enzyme are labeled with a fluorescent label, the fluorescent substrate is de acetyl. The fluorescent labeled substrate is cleaved by the enzyme, and the fluorescent substance is released, which generates 460 nm emission light under the excitation of 360 nm light.
(§10) Specific steps: HDAC substrate was diluted with reaction buffer to 200M (reaction concentration of 20M), the HDAC enzyme was diluted to the appropriate concentration, then added different concentrations of the test compounds and acted at 37 ? 30 minutes, and then added the same volume of 2-times concentration substrate developing solution (developer), incubated at room temperature for 15 minutes. Finally, the last reading measured with a microplate plate reader, excitation light was 360 nm, the emitted light was 460 nm, data processing software was Prime 4, and the results are shown in Table 1.

HDAC2 = HDAC2 (Homo sapiens, UniProt Q92769); experiment: as above; conditions: HDAC2 enzyme, 37°, 30 minutes
Procedure: as §9, §10

HDAC8 = biological target: T1, HDAC8 (Homo sapiens, UniProt Q9BY41); experiment: as above; conditions: HDAC8 enzyme, 37°, 30 minutes
T1 sequence (Q9BY41 1-377): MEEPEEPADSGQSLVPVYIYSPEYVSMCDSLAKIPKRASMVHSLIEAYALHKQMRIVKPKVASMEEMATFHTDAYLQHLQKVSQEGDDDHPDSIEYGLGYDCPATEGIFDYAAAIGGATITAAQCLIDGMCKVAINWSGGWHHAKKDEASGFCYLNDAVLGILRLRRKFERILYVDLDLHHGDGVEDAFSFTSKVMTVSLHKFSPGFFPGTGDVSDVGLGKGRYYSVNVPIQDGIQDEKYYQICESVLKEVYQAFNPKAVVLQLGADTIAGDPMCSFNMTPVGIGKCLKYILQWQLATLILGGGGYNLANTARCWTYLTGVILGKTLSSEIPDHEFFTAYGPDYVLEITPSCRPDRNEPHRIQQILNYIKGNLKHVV
Procedure: as §9, §10

[1] = tested on: A549 (human lung cancer cells); experiment: MTT cancer cell growth inhibition; assay type: cell-based; conditions: 72 hours incubation, A549 cells, read-out: GI50 A549
Excerpt: (§1) MTT assay principle is yellow MTT can penetrate membrane into the cell, succinic dehydrogenase of the mitochondria in living cells can make exogenous MTT reduction of insoluble in water of blue-violet acicular formazan for crystallization and deposition in the cell, crystallization can be dissolved dimethyl sulfoxide (DMSO) solution, detected its absorbance at 490 nm/570 nm wavelength by enzyme-linked immunosorbent assay, which can reflect the number of cells.
(§2) Using DMEM+10% FBS culture medium or using 1640+10% FBS culture, respectively.
(§3) Experimental group: 190 μl cell suspension+10 μl different concentrations of drugs (the final concentration is 10^−5˜10^−10 M)
(§4) a) Cells were seeded in 96-well plates with the inoculation of 1500/well, 190 μl/hole, 37° C., 5% of CO2 incubator overnight;
(§5) b) The next day each well was added 10 μl of different drugs. The final concentration of drug was 10^−5˜10^−10 M, three parallel holes; 37° C., 5% CO2 culture incubator for 72 hours incubation;
(§6) c) Per well was added 20 μl 5 mg/ml of MTT, 37° C., 5% CO2 culture incubator for 4 hours incubation;
(§7) d) The supernatant was discarded. Each well was added 100 μl of DMSO and oscillation;
(§8) e) 570 nm readings. Calculate cell viability. GI50 calculation based on the results.

[2] = tested on: BGC-823 (human gastric cancer cells); experiment: MTT cancer cell growth inhibition; assay type: cell-based; conditions: 72 hours incubation, BGC-823 cells, read-out: GI50 BGC8
Excerpt: as §1, §2, §3, §4, §5, §6, §7, §8

[3] = tested on: DU145 (human prostate cancer cells); experiment: MTT cancer cell growth inhibition; assay type: cell-based; conditions: 72 hours incubation, DU145 cells, read-out: GI50 Du14
Excerpt: as §1, §2, §3, §4, §5, §6, §7, §8

[4] = tested on: HT1080 (human fibrosarcoma cells); experiment: MTT cancer cell growth inhibition; assay type: cell-based; conditions: 72 hours incubation, HT1080 cells, read-out: GI50 HT10
Excerpt: as §1, §2, §3, §4, §5, §6, §7, §8

[5] = tested on: Hela (human cervical cancer cells); experiment: MTT cancer cell growth inhibition; assay type: cell-based; conditions: 72 hours incubation, Hela cells, read-out: GI50 Hela
Excerpt: as §1, §2, §3, §4, §5, §6, §7, §8

[6] = tested on: MCF-7 (human breast cancer cells); experiment: MTT cancer cell growth inhibition; assay type: cell-based; conditions: 72 hours incubation, MCF-7 cells
Excerpt: as §1, §2, §3, §4, §5, §6, §7, §8

[7] = tested on: PANC-1 (Pac-1, human pancreatic cancer cells); experiment: MTT cancer cell growth inhibition; assay type: cell-based; conditions: 72 hours incubation, PANC-1 cells, read-out: GI50 PAN
Excerpt: as §1, §2, §3, §4, §5, §6, §7, §8

[8] = tested on: U937 (human leukemia cells); experiment: MTT cancer cell growth inhibition; assay type: cell-based; conditions: 72 hours incubation
Excerpt: as §1, §2, §3, §4, §5, §6, §7, §8

[9] = tested on: lncap (prostate cancer cells); experiment: MTT cancer cell growth inhibition; assay type: cell-based; conditions: 72 hours incubation, lncap cells, read-out: GI50 lncap
Excerpt: as §1, §2, §3, §4, §5, §6, §7, §8

HDAC3 = HDAC3 (Homo sapiens, UniProt O15379); experiment: HDAC biochemical activity measurement (fluorescent substrate deacetylation); conditions: IC50 (μM) HDAC3, HDAC3 enzyme, 37°, 30 minutes
Procedure: as §9, §10

HDAC11 = biological target: T2, HDAC11 (Homo sapiens, UniProt Q96DB2); experiment: as above; conditions: IC50 (μM) HDAC11, HDAC11 enzyme, 37°, 30 minutes
T2 sequence (Q96DB2 1-347): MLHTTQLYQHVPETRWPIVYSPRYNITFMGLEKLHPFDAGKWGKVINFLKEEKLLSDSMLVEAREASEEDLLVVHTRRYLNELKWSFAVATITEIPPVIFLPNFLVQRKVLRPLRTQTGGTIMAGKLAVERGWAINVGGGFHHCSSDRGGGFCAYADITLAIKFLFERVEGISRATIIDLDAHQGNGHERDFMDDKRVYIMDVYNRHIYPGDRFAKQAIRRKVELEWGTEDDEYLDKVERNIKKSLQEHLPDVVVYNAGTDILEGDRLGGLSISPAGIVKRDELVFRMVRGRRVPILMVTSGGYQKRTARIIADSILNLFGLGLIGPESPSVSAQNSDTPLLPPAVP
Procedure: as §9, §10

HDAC7 = biological target: T3, HDAC7 (Homo sapiens, UniProt Q8WUI4); experiment: as above; conditions: HDAC7 enzyme, 37°, 30 minutes
T3 sequence (Q8WUI4 1-952): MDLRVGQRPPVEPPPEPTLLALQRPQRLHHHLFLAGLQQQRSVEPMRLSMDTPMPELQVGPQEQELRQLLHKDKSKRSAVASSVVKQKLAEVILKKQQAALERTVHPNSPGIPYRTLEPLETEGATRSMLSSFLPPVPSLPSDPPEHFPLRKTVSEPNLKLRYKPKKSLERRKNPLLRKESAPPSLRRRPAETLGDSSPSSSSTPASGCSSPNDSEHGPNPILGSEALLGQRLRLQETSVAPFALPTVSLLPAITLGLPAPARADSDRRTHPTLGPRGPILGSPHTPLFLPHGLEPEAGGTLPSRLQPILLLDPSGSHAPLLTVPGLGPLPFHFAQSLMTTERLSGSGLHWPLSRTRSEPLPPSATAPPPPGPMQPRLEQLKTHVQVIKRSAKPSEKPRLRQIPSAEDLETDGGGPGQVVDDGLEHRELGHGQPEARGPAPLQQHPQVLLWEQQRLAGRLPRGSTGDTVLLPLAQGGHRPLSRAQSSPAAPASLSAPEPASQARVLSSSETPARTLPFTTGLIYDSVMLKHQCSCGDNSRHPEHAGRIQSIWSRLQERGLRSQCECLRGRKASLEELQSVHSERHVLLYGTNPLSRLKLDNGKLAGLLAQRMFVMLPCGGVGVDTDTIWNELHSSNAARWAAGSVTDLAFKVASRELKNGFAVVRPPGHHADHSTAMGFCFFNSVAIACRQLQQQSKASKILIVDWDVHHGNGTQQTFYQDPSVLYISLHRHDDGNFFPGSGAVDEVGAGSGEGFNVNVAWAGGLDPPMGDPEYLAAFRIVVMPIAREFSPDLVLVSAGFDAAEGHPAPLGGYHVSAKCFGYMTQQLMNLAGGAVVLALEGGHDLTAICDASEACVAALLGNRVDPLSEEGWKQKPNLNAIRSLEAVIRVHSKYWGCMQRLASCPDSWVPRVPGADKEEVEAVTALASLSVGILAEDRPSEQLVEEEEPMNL
Procedure: Measurement principle: The chemical activity of the compound is determined according to the degree of deacetylation inhibition of the HDAC enzyme. […] After the substrate containing an acetylated lysine side chain and HDAC enzyme are labeled with a fluorescent label, the fluorescent substrate is de acetyl. The fluorescent labeled substrate is cleaved by the enzyme, and the fluorescent substance is released, which generates 460 nm emission light under the excitation of 360 nm light.
as §10

[10] = tested on: MOLT-4 (human acute lymphoblastic leukemia cells); experiment: MTT cancer cell growth inhibition; assay type: cell-based; conditions: 72 hours incubation, MOLT-4 cells, read-out: GI50 Molt-
Excerpt: as §1, §2, §3, §4, §5, §6, §7, §8

HDAC2, sequence (Q92769 whole entry, species assumed): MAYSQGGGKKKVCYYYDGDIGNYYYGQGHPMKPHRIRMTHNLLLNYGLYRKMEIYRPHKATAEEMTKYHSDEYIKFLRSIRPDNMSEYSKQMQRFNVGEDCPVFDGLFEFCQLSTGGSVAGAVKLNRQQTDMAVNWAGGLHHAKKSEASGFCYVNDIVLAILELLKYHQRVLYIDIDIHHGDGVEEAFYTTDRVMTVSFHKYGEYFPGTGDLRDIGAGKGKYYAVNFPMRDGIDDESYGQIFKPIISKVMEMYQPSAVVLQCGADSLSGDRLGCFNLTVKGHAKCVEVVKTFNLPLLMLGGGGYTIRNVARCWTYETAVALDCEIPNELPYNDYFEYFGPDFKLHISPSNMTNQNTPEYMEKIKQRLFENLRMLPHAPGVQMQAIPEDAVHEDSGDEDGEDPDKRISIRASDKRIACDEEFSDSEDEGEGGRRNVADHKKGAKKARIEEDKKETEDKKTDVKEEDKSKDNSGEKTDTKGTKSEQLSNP
HDAC1, sequence (Q13547 whole entry, species assumed): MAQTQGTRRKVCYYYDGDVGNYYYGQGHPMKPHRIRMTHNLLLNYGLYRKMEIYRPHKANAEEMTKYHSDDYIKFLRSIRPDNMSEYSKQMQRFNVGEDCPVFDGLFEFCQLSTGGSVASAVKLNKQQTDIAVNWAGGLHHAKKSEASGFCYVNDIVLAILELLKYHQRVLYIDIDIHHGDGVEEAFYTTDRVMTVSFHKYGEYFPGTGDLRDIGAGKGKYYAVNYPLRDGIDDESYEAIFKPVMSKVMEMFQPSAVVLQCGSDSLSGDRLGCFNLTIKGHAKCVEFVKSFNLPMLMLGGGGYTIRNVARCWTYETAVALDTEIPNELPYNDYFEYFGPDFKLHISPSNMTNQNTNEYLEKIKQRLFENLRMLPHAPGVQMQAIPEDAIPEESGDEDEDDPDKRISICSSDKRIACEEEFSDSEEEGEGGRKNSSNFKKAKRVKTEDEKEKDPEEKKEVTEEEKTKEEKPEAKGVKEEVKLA
HDAC3, sequence (O15379 whole entry, species assumed): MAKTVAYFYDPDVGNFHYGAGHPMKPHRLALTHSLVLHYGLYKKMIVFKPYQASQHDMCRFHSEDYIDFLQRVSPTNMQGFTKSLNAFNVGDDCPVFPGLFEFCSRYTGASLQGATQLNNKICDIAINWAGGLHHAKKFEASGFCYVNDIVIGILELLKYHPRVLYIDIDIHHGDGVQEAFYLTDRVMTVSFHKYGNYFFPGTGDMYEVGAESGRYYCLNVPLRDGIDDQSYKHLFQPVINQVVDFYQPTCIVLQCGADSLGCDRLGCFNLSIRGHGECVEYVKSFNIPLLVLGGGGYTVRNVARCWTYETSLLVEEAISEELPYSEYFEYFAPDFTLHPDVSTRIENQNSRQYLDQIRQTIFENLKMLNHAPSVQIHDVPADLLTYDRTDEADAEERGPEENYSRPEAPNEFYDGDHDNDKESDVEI
HDAC3, sequence (Q9Y618 395-489 partner limits assumed, species assumed): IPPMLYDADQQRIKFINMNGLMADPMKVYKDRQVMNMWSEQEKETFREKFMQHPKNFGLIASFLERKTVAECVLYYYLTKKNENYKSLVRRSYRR

C/C=C1\NC(=O)c2ccc(SC)c(n2)CNC(=O)C[C@@H](/C=C/CCSC(=O)CCCC)OC(=O)[C@H](C(C)C)NC1=O [Compound 158]
IC50 (HDAC1): 0.081 µM
IC50 (HDAC2): 0.028 µM
IC50 (HDAC8): 0.043 µM
GI50 ([1]; Homo sapiens, A549, 72 h): 37 nM
GI50 ([2]; Homo sapiens, BGC-823, 72 h): 32 nM
GI50 ([3]; Homo sapiens, DU-145, 72 h): 63 nM
GI50 ([4]; Homo sapiens, HT-1080, 72 h): 76 nM
GI50 ([5]; Homo sapiens, HeLa, 72 h): 68 nM
GI50 ([6]; Homo sapiens, MCF7, 72 h): 21 nM
GI50 ([7]; Homo sapiens, PANC-1, 72 h): 23 nM
GI50 ([8]; Homo sapiens, U-937, 72 h): 42 nM
GI50 ([9]; Homo sapiens, LNCaP, 72 h): 43 nM
IC50 (HDAC3): 0.053 µM
IC50 (HDAC11): 0.092 µM

C/C=C1\NC(=O)c2nc(cc(SC)n2)CNC(=O)C[C@@H](/C=C/CCSC(C)=O)OC(=O)[C@H](C(C)C)NC1=O [Compound 216]
IC50 (μM) HDAC7 (HDAC7): no activity
GI50 [2]: 66 nM
GI50 [3]: 29 nM
GI50 [4]: 58 nM
GI50 [5]: 76 nM
GI50 [6]: 55 nM
GI50 [10]: 46 nM
GI50 [7]: 21 nM
GI50 [8]: 86 nM
GI50 [9]: 16 nM

C/C=C1\NC(=O)c2ncc(SC)c(n2)CNC(=O)C[C@@H](/C=C/CCSC(C)=O)OC(=O)[C@H](C(C)C)NC1=O [Compound 217]
IC50 (μM) HDAC7 (HDAC7): no activity
GI50 [1]: 72 nM
GI50 [2]: 35 nM
GI50 [3]: 27 nM
GI50 [4]: 21 nM
GI50 [6]: 63 nM
GI50 [10]: 99 nM
GI50 [7]: 73 nM
GI50 [8]: 91 nM
GI50 [9]: 34 nM

C/C=C1\NC(=O)c2cc(SC)cc(n2)CNC(=O)C[C@@H](/C=C/CCSC(C)=O)OC(=O)[C@H](C(C)C)NC1=O [Compound 224]
IC50 (μM) HDAC7 (HDAC7): no activity
GI50 [1]: 58 nM
GI50 [2]: 38 nM
GI50 [3]: 51 nM
GI50 [4]: 95 nM
GI50 [5]: 67 nM
GI50 [6]: 43 nM
GI50 [10]: 33 nM
GI50 [9]: 34 nM

C/C=C1\NC(=O)c2cccc(n2)CNC(=O)C[C@@H](/C=C/CCSC(=O)CCCCCCC)OC(=O)[C@@H](C)NC1=O [Compound 236]
GI50 ([9]; Homo sapiens, LNCaP, 72 h): 53 nM
